Experimental data from patent publication US7388028B2, “Methoxypolyethylene glycol thioester chelate and uses thereof” (priority 2006, dated 2008).

How the values were obtained:
[1] = system: NMDA retinal damage model; experiment: NMDA retinal damage model, electroretinogram A and B waves; assay type: in vivo, rats
Protocol: NMDA retinal damage model: Changes in electroretinogram (ERG) A and B waves have been used as indicators of RGC damage. To examine RGC neuroprotection, 2 ul intravitreal injections of 10 mM NMDA, sufficient to change ERG A and B-waves within 2 weeks, were challenged with co-administered intravitreal (2 mM) or topical 100 mM MPDTE, MPSEDE and amifostine in normal rats unilaterally. For topical administration, rats were pretreated for 5 days prior and 3 days post-NMDA administration with the agents at a frequency of 3 times per day with 20 μl agent. Scotopic ERG changes were measured in normal rats. Rats were dark adapted for at least 4 hrs. Eyes were dilated with atropine after which proparacaine and methylcellulose gel were applied topically. Custom made AgCl electrodes (64-1317, Warner Instruments, Hamden, Conn.) were placed on the apex of the cornea. Stimuli consisted of 10-microsec flashes of unattenuated white light generated by Ganzfield bowl photo stimulator (Grass Instruments, PS22, Quincy, Mass.). Data from each eye was recorded separately with a driver amplifier (Grass Instruments, Model 7DAF Polygraph, Quincy, Mass.). Data was acquired digitally via DASYLab (Bedford, N.H.). The contralateral normal eye served as an age matched negative control, e.g. response in a normal, undamaged eye. Differences in amplitude of the A-wave and B-waves between the treated eye and the contralateral eye and between treatment groups were calculated.

[2] = system: rat surgical glaucoma model (intraocular pressure); experiment: Topical application of MP compounds, IOP measurements on rat surgical glaucoma model; assay type: in vivo, rats
Protocol: Rat ocular hypertensive model: Ocular hypertension was induced in 9 male SpragueDawley rats, weighing between 400 to 500 grams. Under general anesthesia with acepromazine maleate (12 mg/Kg) and ketamine (80 mg/Kg), IP, and topical proparacaine (0.5%), dissection of the conjunctiva was made with fine cuts. To reduce the stimulus for revascularization or neovascularization, dissection of the right eye was limited to the area immediately surrounding the vortex veins. Three of four vortex veins were exposed and ligated using 9.0 nylon sutures. Criterion for inclusion into the study was an intraocular pressure (IOP) increase of 5 mm Hg or more when compared to […] baseline IOP. Within 6 weeks, the IOP of all the operated eyes increased at least 5 mm Hg compared to baseline. National Institutes of Health Guidelines and Association for Research in Vision and Opthalmology statement for the Use and Care of Animals were followed in this study.
Intraocular pressure (IOP) Measurements: Prior to initiation of treatment, baseline IOP was obtained in glaucoma rat models. IOP was measured via a specially modified Goldmann applanation tonometer (HAAG-STREIT, Bern, Switzerland) under sedation. Measurements are averages of two consecutive readings and were made at the same time of day and by the same observers.
Topical application of MP compounds for IOP measurements on rat surgical glaucoma model: Rats were treated topically with 20 μl of MP compounds (0.3-100 mM; n=3-6) on the operated eyes. The MP compounds were compared to 10 or 87 mM topical amifostine, a free radical scavenger. MP esterified chelators were diethylenetriaminepentaacetic acid (MPDTE) and MPSEDE.

[3] = Intravitreal agent (2 mM) co-administered with intravitreal 10 mM NMDA
[4] = Topical agent (100 mM, 3 times per day, 5 days prior and 3 days post-NMDA), intravitreal 10 mM NMDA

`CN[C@H](CC(=O)O)C(=O)O` [NMDA, N-methyl-D-aspartate, reference compound] showed an A wave [1, 3] of 51.2 % Baseline, a B wave [1, 3] of 68.4 % Baseline and an A wave [1, 4] of 51.2 % Baseline. For the same compound, the B wave [1, 4] was 68.4 % Baseline.

In the case of `NCCCNCCSP(=O)(O)O` [amifostine, S-2-[3-aminopropylamino] ethylphosphorothioate], the IOP reduction ([2]; topical 10 mM or 87 mM) is reported as “No reduction in IOP”.

In the case of “methoxypolyethlene glycol thioester of ethylenediaminetetraacetic acid methyl triester [MPSEDE]”, the IOP reduction ([2]; single topical dose of 10-100 mM, operated eye, FIG. 5-7) is reported as “significantly reduced IOP”, the A wave [1, 3] is reported as 76.2 % Baseline and the B wave [1, 3] is reported as 69.6 % Baseline. The A wave [1, 4] was 95.9 % Baseline, the B wave [1, 4] was 93.7 % Baseline and the “reduction of NMDA damage” value ([1]; both intravitreal and topical administration (Table 1)) was “significantly reduced NMDA damage”. The “reduction of NMDA damage” value ([1]; co-administration with NMDA, at the dose tested) was “trend to reduce NMDA damage, but this was not significant”.

With “polyethylene glycol monomethyl ether [MP]” the IOP reduction ([2]; administered alone or together, FIG. 10, not as great as with MPDTE) was “reduction in IOP”.
